Source: the supplement of paper PMC10307832

Experiments:
Test in all cases: relative viability (nuclei count vs DMSO), 5 days (fraction); higher = more cells survive
OSI-027 + Navitoclax = compound: COc1cccc2cc(-c3nc([C@H]4CC[C@H](C(=O)O)CC4)n4ncnc(N)c34)[nH]c12 [OSI-027] + CC1(C)CCC(c2ccc(Cl)cc2)=C(CN2CCN(c3ccc(C(=O)NS(=O)(=O)c4ccc(N[C@H](CCN5CCOCC5)CSc5ccccc5)c(S(=O)(=O)C(F)(F)F)c4)cc3)CC2)C1 [Navitoclax] (partner 0.5 µM)
Method in brief: (§1)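 The day after seeding in 1536-well plates, lung cancer cell lines were treated by pin tool with a single drug, or with a fixed anchor-drug dose together with five library-drug doses (not always all listed) in √10 steps. After 5 days, a combined fix-and-stain solution (final 0.05% Triton X-100, 1% formaldehyde, 1 ug/ml Hoechst) was added. Nuclei counted on 4× images gave relative viability as treated counts over vehicle counts, reported as the median of duplicate plates.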

OSI-027 + Crizotinib = compound: COc1cccc2cc(-c3nc([C@H]4CC[C@H](C(=O)O)CC4)n4ncnc(N)c34)[nH]c12 [OSI-027] + C[C@@H](Oc1cc(-c2cnn(C3CCNCC3)c2)cnc1N)c1c(Cl)ccc(F)c1Cl [Crizotinib] (partner 1 µM)
Method in brief: as §1

Vemurafenib + Dasatinib = compound: CCCS(=O)(=O)Nc1ccc(F)c(C(=O)c2c[nH]c3ncc(-c4ccc(Cl)cc4)cc23)c1F [Vemurafenib] + Cc1nc(Nc2ncc(C(=O)Nc3c(C)cccc3Cl)s2)cc(N2CCN(CCO)CC2)n1 [Dasatinib] (partner 0.075 µM)
Method in brief: as §1

Vemurafenib + AZD7762 = compound: CCCS(=O)(=O)Nc1ccc(F)c(C(=O)c2c[nH]c3ncc(-c4ccc(Cl)cc4)cc23)c1F [Vemurafenib] + NC(=O)Nc1cc(-c2cccc(F)c2)sc1C(=O)N[C@H]1CCCNC1 [AZD7762] (partner 0.2 µM)
Method in brief: as §1

Cell Line	relative viability (OSI-027 + Navitoclax; first compound 0.01 µM)	relative viability (OSI-027 + Navitoclax; first compound 0.03162 µM)	relative viability (OSI-027 + Navitoclax; first compound 0.1 µM)	relative viability (OSI-027 + Navitoclax; first compound 0.3162 µM)	relative viability (OSI-027 + Navitoclax; first compound 1 µM)	relative viability (OSI-027 + Crizotinib; first compound 0.01 µM)	relative viability (OSI-027 + Crizotinib; first compound 0.03162 µM)	relative viability (OSI-027 + Crizotinib; first compound 0.1 µM)	relative viability (OSI-027 + Crizotinib; first compound 0.3162 µM)	relative viability (OSI-027 + Crizotinib; first compound 1 µM)	relative viability (Vemurafenib + Dasatinib; first compound 0.03162 µM)	relative viability (Vemurafenib + Dasatinib; first compound 0.1 µM)	relative viability (Vemurafenib + Dasatinib; first compound 0.3162 µM)	relative viability (Vemurafenib + Dasatinib; first compound 1 µM)	relative viability (Vemurafenib + AZD7762; first compound 0.03162 µM)	relative viability (Vemurafenib + AZD7762; first compound 0.1 µM)	relative viability (Vemurafenib + AZD7762; first compound 0.3162 µM)	relative viability (Vemurafenib + AZD7762; first compound 1 µM)
NCI-H1915	0.831	0.779	0.809	0.801	0.85	0.928	0.829	0.931	0.896	0.584	0.294	0.343	0.267	0.358	0.644	0.728	0.587	0.612
EKVX	0.954	0.873	1.01	0.807	0.44	0.92	0.816	1.03	0.822	0.513	0.51	–	0.661	0.515	0.689	–	0.683	0.6
HCC-78	0.868	0.766	0.371	0.454	0.278	0.289	0.322	0.33	0.274	0.185	0.359	0.329	0.593	0.37	0.513	0.493	0.65	0.777
NCI-H2126	0.885	0.856	0.818	0.679	0.801	1.04	0.986	0.996	0.915	0.664	0.562	0.584	–	0.537	0.971	0.997	0.99	1.1
HCC-827	1.07	1.06	0.995	0.996	0.651	0.924	0.969	0.915	1.01	0.649	0.386	–	0.399	0.348	0.234	–	0.198	0.265
LK-2	0.774	0.781	0.69	0.372	0.238	0.199	0.229	0.273	0.242	0.203	0.306	0.306	0.33	0.223	0.397	0.428	0.406	0.312
PC-14	1.02	0.998	1.05	1.05	0.939	1	0.898	0.95	0.934	0.581	0.229	–	0.228	0.267	0.272	–	–	0.356
NCI-H1355	0.84	0.868	0.855	0.529	0.205	0.969	0.937	0.998	0.847	0.276	0.671	0.703	0.466	0.745	0.672	0.663	0.603	0.698
LXF-289	1.03	0.973	1.01	0.921	0.582	0.859	0.827	0.892	0.909	0.759	0.203	0.236	0.0972	0.181	1.04	1.12	1.04	1.25
LOU-NH91	0.758	0.712	0.69	0.653	0.513	0.73	0.726	0.693	0.681	0.508	0.509	–	–	0.572	0.735	0.682	0.594	0.816
NCI-H2170	0.651	0.565	0.471	0.535	0.221	1.31	1.07	0.986	1.1	0.552	0.523	0.214	0.639	0.54	0.774	–	0.685	0.766
NCI-H2405	0.858	0.791	0.768	0.636	0.384	0.856	0.729	0.814	0.631	0.338	0.213	0.231	–	0.231	0.709	0.696	–	0.721
NCI-H322M	1.24	1.15	1.17	0.783	1.27	0.86	0.929	0.951	0.947	0.775	0.241	–	–	0.229	0.559	–	0.543	0.51
NCI-H23	0.666	0.955	0.808	0.604	0.319	0.482	0.416	0.535	0.525	0.293	0.754	0.77	0.737	0.434	0.203	0.178	0.154	0.21
HCC-15	0.713	0.689	0.676	0.611	0.374	0.933	0.712	0.789	0.732	0.482	0.551	0.67	–	0.726	1.05	1.22	1.17	1.1
NCI-H1437	1.12	1.01	1.14	1	0.487	0.987	0.966	0.995	0.944	0.441	0.338	0.336	0.296	0.325	1.14	1.04	0.943	1.09
A-427	0.974	0.873	0.837	0.603	0.696	0.91	0.821	0.866	0.673	0.374	0.597	0.624	0.446	0.581	0.696	0.709	–	0.792
